Test results: patent US11414429B2, “Compound or pharmaceutically acceptable salt thereof” (RIKEN, priority 2016, dated 2022)

Experiments:
tankyrase 1 (TNKS 1) = target: T1, tankyrase 1 (TNKS 1) (Homo sapiens, UniProt O95271); experiment: Tankyrase inhibitory activity test (ELISA, self-polyADP ribosylation), tankyrase 1; assay type: biochemical; details: tankyrase 1, ELISA, self-polyADP ribosylation; read-out: TNKS1 inhibitory activity (IC50 class)
T1 construct: 1,024-1,327aa; made in house; host or cells: cell-free protein synthesis system
Description: (§1) (Test Example 1) Tankyrase Inhibitory Activity Test
(§2) For each of the compounds obtained in Examples (the test target compounds), the tankyrase inhibitory activity (an inhibitory activity against tankyrase 1 (TNKS 1) and an inhibitory activity against tankyrase 2 (TNKS 2)) was evaluated by measuring the enzymatic activity of tankyrase 1 and the enzymatic activity of tankyrase 2 by the ELISA technique using self-polyADP ribosylation as an index. First, Flag-tag fusion tankyrase 1 (1,024-1,327aa, SAM+PARP) and tankyrase 2 (613-1, 116aa, ANK5+SAM+PARP) were each synthesized by a cell-free protein synthesis system and diluted with a Tris buffer (50 mM Tris-HCl (pH 8.0), 150 mM NaCl, 10% glycerol). Then, 50 μL of the diluted tankyrase 1 or tankyrase 2 was added to a plate on which the anti-FLAGM 2 monoclonal antibody was immobilized (Anti-FLAG high sensitivity M2 coated plate) (SIGMA Corporation), and was allowed to stand at 4° C. overnight. Thereafter, the plate was washed four times with a PBS buffer containing 0.1% Triton X-100 (PBST buffer).
(§3) Subsequently, the test target compound diluted with an assay buffer (50 mM Tris-HCl (pH 8.0), 4 mM MgCl2, 0.2 mM DTT) (using DMSO as a control) was added to each well of the plate and was allowed to stand at room temperature for 10 minutes. Thereafter, a biotin-labeled NAD solution (225 μM NAD, 25 μM 6-Biotin-17-NAD (Trevigen Inc.)) was added as a donor substrate and mixed with the resultant test target compound, and the reaction was allowed to proceed at 30° C. for 45 minutes. Instead of the biotin-labeled NAD solution, distilled water was added to blank wells. After the reaction, the plate was washed four times with the PBST buffer. Thereafter, HRP (horseradish peroxidase)-labeled streptavidin (Trevigen Inc.) diluted 1,000-fold with the PBS buffer was added to each well, and the reaction was allowed to proceed at room temperature for 20 minutes. After the plate was washed four times with the PBST buffer, a chemiluminescent substrate solution TACS-Sapphire (Trevigen Inc.) was added to each well and the reaction was allowed to proceed at room temperature for 20 minutes. Then, the chemiluminescence intensity was measured using a chemiluminescence measuring apparatus.
(§4) The residual enzyme activity in the presence of the test target compound was determined in accordance with the following formula. Based on the residual enzyme activity at multiple concentrations of the test target compound, an enzyme inhibition activity was calculated as a 50% inhibitory concentration (IC50 value) using data analysis software named Origin (LightStone Corp.).

tankyrase 2 (TNKS 2) = target: T2, tankyrase 2 (TNKS 2) (Homo sapiens, UniProt Q9H2K2); experiment: Tankyrase inhibitory activity test (ELISA, self-polyADP ribosylation), tankyrase 2; assay type: biochemical; details: tankyrase 2, ELISA, self-polyADP ribosylation; read-out: TNKS2 inhibitory activity (IC50 class)
T2 construct: 613-1, 116aa; made in house; host or cells: cell-free protein synthesis system
Description: as §1, §2, §3, §4

[1] = test system: human colorectal cancer cell line, COLO-320DM; experiment: Cell proliferation inhibitory activity test (Celltiter-Glo Luminescent Cell Viability Assay); assay type: cell-based; details: COLO-320DM cells, 96 hours, read-out: COLO-320 DM cell proliferation inhibitory activity (GI50 class)
Description: (Test Example 2) Cell Proliferation Inhibitory Activity Test
The cell proliferation inhibitory activity of the compound obtained in each of Examples against human colorectal cancer cell line, COLO-320DM was evaluated by Celltiter-Glo Luminescent Cell Viability Assay (Promega Corporation, G7573). The COLO-320 DM cells were cultured in a RPMI-1640 medium (Wako Pure Chemical Industries, Ltd., 189-02025) containing 10% fetal bovine serum and 2 mM of glutamine. The cultured cells were washed with PBS and then detached with trypsin/EDTA to prepare a cell solution containing 3×10^4 cells/mL.
Next, the cell solution was seeded in a 96 well microplate (Thermo/Nunc, 136101) in an amount of 70 μL/well and was cultured overnight under conditions at 37° C. with 5% CO2. On the next day, 10 μL/well of a solution in which the test target compound (DMSO solution) was diluted with the cell culture medium (a final DMSO concentration of 1%) was added and the reaction was allowed to proceed under conditions at 37° C. with 5% CO2 for 96 hours (a 1% DMSO solution was used as a control). Subsequently, 80 μL/well of Celltiter-Glo Luminescent Cell Viability Assay reagent (Promega Corporation, G7573) was added, followed by agitation for 2 minutes with a shaker under shielding with aluminum foil. Thereafter, the resultant solution was allowed to stand for reaction at room temperature for 10 minutes.
After that, the luminescent signal was measured with a luminometer (Biotech, Synergy). The cell proliferation inhibitory activity was evaluated by obtaining a percentage of a cell proliferation volume of each compound-added group with respect to a cell proliferation volume (100%) of a control group in which no test target component solution was added, and calculating a value of compound concentration (GI50) required to reduce the remaining cell volume to 50% of the remaining cell volume of the control. […] The results are shown in Tables 120 to 123 together with the results of the tankyrase inhibition activity test.

T2 sequence (Q9H2K2 613-1166): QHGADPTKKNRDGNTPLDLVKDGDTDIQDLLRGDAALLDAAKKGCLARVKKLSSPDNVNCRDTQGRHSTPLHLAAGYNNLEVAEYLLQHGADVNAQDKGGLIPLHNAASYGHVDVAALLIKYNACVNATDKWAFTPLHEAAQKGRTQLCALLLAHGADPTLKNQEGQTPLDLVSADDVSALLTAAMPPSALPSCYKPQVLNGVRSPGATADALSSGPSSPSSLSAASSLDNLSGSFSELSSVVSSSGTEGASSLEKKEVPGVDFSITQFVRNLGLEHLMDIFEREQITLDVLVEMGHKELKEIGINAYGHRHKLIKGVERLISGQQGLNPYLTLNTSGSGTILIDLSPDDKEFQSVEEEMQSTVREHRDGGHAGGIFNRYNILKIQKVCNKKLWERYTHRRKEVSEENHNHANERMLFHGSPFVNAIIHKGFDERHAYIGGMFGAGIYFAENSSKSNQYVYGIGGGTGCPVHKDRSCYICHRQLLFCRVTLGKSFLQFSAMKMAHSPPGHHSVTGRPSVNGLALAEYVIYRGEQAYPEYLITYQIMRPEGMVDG
T1 sequence (O95271 1024-1327): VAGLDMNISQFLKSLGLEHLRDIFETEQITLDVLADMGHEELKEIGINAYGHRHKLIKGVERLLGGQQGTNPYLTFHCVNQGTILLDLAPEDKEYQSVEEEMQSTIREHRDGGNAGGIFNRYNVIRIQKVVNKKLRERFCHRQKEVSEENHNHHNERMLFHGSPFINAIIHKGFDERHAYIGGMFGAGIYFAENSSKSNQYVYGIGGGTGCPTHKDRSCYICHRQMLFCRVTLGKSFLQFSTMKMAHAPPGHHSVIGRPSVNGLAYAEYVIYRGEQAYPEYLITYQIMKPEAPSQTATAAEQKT

Row | SMILES | IC50 (tankyrase 1 (TNKS 1)) [µM] | IC50 (tankyrase 2 (TNKS 2)) [µM] | GI50 [1] [µM]
1 | CCOC(=O)c1coc(-c2cc(Cl)c3c(c2)N(C)C(=O)C32CCN(c3nc4c(c(=O)[nH]3)CCCN4C)CC2)n1 [Example 328, 4-chloro-6-(4-ethoxy-carbonyl-oxazole-2-yl)-1-methyl-1′-(8-methyl-4-oxo-3,4,5,6,7,8-hexahydro-pyrido[2,3-d]-pyrimidin-2-yl)spiro-[indoline-3,4′-piperidin]-2-one] | 0.02 to 0.2 | < 0.02 | 0.1 to 0.6
2 | CN1CCCc2c1nc(N1CCC3(CC1)C(=O)N(C)c1cc(-c4nc(CN5CCCC5)co4)cc(Cl)c13)[nH]c2=O [Example 329, 4-chloro-1-methyl-1′-(8-methyl-4-oxo-3,4,5,6,7,8-hexahydro-pyrido[2,3-d]-pyrimidin-2-yl)-6-[4-(pyrroidin-1yl-methyl)oxazol-2-yl]-spiro-[indoline-3,4′-piperidin]-2-one] | 0.02 to 0.2 | 0.02 to 0.2 | 0.6 to 1
3 | CN1CCCc2c1nc(N1CCC3(CC1)C(=O)N(C)c1c(C(N)=O)ccc(Cl)c13)[nH]c2=O [Example 330, 4-chloro-1-methyl-1′-(8-methyl-4-oxo-3,4,5,6,7,8-hexahydro-pyrido[2,3-d]-pyrimidin-2-yl)-2-oxospiro-[indoline-3,4′-piperidine]-7-carboxamide] | < 0.02 | < 0.02 | 0.6 to 1
4 | CN1CCCc2c1nc(N1CCC3(CC1)C(=O)N(C)c1cc(-c4nc(C(=O)O)co4)cc(Cl)c13)[nH]c2=O [Example 331, 2-{4-chloro-1-methyl-1′-(8-methyl-4-oxo-3,4,5,6,7,8-hexahydro-pyrido[2,3-d]pyrimidin-2-yl)-2-oxospiro [indoline-3,4′-piperidin]-6-yl]oxazole-4-carboxylic acid] | < 0.02 | < 0.02 | 0.6 to 1
5 | O=C1N(Cc2cccnc2)c2cc(F)cc(F)c2C12CCN(c1nc3c(c(=O)[nH]1)CCCC3)CC2 [Example 333, 4,6-difluoro-1′-(4-oxo-3,4,5,6,7,8-hexahydro-quinazolin-2-yl)-1-(pyridin-3-ylmethyl) spiro[indoline-3,4′-piperidin]-2-one] | < 0.02 | < 0.02 | 0.1 to 0.6
6 | CN1C(=O)C2(CCN(c3nc4c(c(=O)[nH]3)CCCC4)CC2)c2c(Cl)cc(OCCCN3CCOCC3)cc21 [Example 334] | < 0.02 | < 0.02 | 0.6 to 1
7 | CN1CC2(CCN(c3nc4c(c(=O)[nH]3)CCCN4C)CC2)c2c(F)cc(F)cc21 [Example 337, 2-(4,6-difluoro-1-methylspiro [indoline-3,4′-piperidin]-1′-yl)-8-methyl-5,6,7,8-tetrahy-dropyrido [2,3-d] pyrimidin-4(3H)-one] | < 0.02 | < 0.02 | 0.1 to 0.6
8 | CN1CCCc2c1nc(N1CCC3(CC1)CN(CCO)c1cc(F)cc(F)c13)[nH]c2=O [Example 338, 2-[4,6-difluoro-1-(2-hydroxyethyl)spiro [indoline-3,4′-piperidin]-1′-yl]-8-methyl-5,6,7,8-tetrahydro-pyrido [2,3-d] pyrimidin-4(3H)-one] | 0.02 to 0.2 | < 0.02 | 0.1 to 0.6
9 | CN1CCCc2c1nc(N1CCC3(CC1)C(=O)N(C)c1cc(F)cc(F)c13)[nH]c2=O [Example 339, 4,6-difluoro-1-methyl-1′-(8-methyl-4-oxo-3,4,5,6,7,8-hexahydro-pyrido[2,3-d]pyrimidin-2-yl)spiro [indoline-3,4′-piperidin]-2-one] | < 0.02 | < 0.02 | 0.1 to 0.6
10 | CN1CCCc2c1nc(N1CCC3(CC1)C(=O)N(CCO)c1cc(F)cc(F)c13)[nH]c2=O [Example 340, 4,6-difluoro-1-(2-hydroxyethyl)-1′-(8-methyl-4-oxo-3,4,5,6,7,8-hexahydro-pyrido[2,3-d]pyrimidin-2-yl)spiro [indoline-3,4′-piperidin]-2-one] | < 0.02 | < 0.02 | 0.1 to 0.6
11 | O=c1[nH]c(N2CCC3(CC2)CN(Cc2ccccc2F)c2cc(F)cc(F)c23)nc2c1CCCC2 [Example 341, 2-[4,6-difluoro-1-(2-fluorobenzyl)spiro [indoline-3,4′-piperidin]-1′-yl]-5,6,7,8-tetrahy-droquinazolin-4(3H)-one] | 0.02 to 0.2 | 0.02 to 0.2 | 0.6 to 1
12 | O=c1[nH]c(N2CCC3(CC2)CN(Cc2cccc(F)c2)c2cc(F)cc(F)c23)nc2c1CCCC2 [Example 342, 2-[4,6-difluoro-1-(3-fluorobenzyl)spiro [indoline-3,4′-piperidin]-1′-yl]-5,6,7,8-tetrahy-droquinazolin-4(3H)-one] | 0.02 to 0.2 | < 0.02 | 0.6 to 1
13 | O=c1[nH]c(N2CCC3(CC2)CN(Cc2ccc(Cl)nc2)c2cc(F)cc(F)c23)nc2c1CCCC2 [Example 344, 2-{1-[(6-chloropyridin-3-yl)methyl]-4,6-di-fluorospiro[indoline-3,4′-piperidin]-1′-yl]-5,6,7,8-tetrahydroquin-azolin-4(3H)-one] | < 0.02 | < 0.02 | 0.1 to 0.6
14 | Cn1ccc2c(=O)[nH]c(N3CCC4(CC3)CN(Cc3cccnc3)c3cc(F)cc(F)c34)nc21 [Example 347, 2-[4,6-difluoro-1-(pyridin-3-ylmethyl)spiro [indoline-3,4′-piperidine]-1′-yl]-7-methyl-3,7-dihydro-4H-pyrrolo [2,3-d]pyrimidin-4-one] | 0.02 to 0.2 | 0.02 to 0.2 | 0.6 to 1
15 | CN1CCCc2c1nc(N1CCC3(CC1)CN(Cc1cccnc1)c1cc(F)cc(F)c13)[nH]c2=O [Example 351, 2-[4,6-difluoro-1-(pyridin-3-ylmethyl)spiro [indoline-3,4′-piperi-dine]-1′-yl]-8-methyl-5,6,7,8-tetrahydro pyrido [2,3-d]pyrimidin-4(3H)-one] | 0.02 to 0.2 | < 0.02 | 0.1 to 0.6
16 | CN1CCCc2c1nc(N1CCC3(CC1)C(=O)N(C)c1cc(O)cc(F)c13)[nH]c2=O [Example 354, 4-fluoro-6-hydroxy-1-methyl-1′-(8-methyl-4-oxo-3,4,5,6,7,8-hexahydropyrido [2,3-d]pyrimidin-2-yl) spiro[indoline-3,4′-piperidin]-2-one] | < 0.02 | < 0.02 | 0.1 to 0.6
17 | CN1CCCc2c1nc(N1CCC3(CC1)C(=O)N(C)c1cc(OCCO)cc(F)c13)[nH]c2=O [Example 356, 4-fluoro-6-(2-hydroxy-ethoxy)-1-methyl-1′-(8-methyl-4-oxo-3,4,5,6,7,8-hexahydro-pyrido[2,3-d]pyrimidin-2-yl) spiro [indoline-3,4′-piperidin]-2-one] | < 0.02 | < 0.02 | 0.1 to 0.6
